Reference: patent US8906909B2 (Curis, Inc., priority 2009, dated 2014)
Where two headings read alike, the source gives them in different places.

Experiments:
HCT-118 cells = experiment: Cell proliferation assay Method A (ATPlite), HCT-118; format: cell-based; details: 72 hours, read-out: antiproliferative activity IC50, HCT-118
Procedure: (§1) Cancer cell lines were plated at 5,000 to 10,000 per well in 96-well flat bottomed plates with various concentration of compounds. The cells were incubated with compounds for 72 hours in the presence of 0.5% of fetal bovine serum. Growth inhibition was accessed by adenosine triphosphate (ATP) content assay using Perkin Elmer ATPlite kit. ATPlite is an ATP monitoring system based on firefly luciferase. Briefly, 25 μl of mammalian cell lysis solution was added to 50 μl of phenol red-free culture medium per well to lyse the cells and stabilize the ATP. 25 μl of substrate solution was then added to the well and subsequently the luminescence was measured.

BT-474 cells = experiment: Cell proliferation assay Method A (ATPlite), BT-474; format: cell-based; details: Homo sapiens, 72 hours, read-out: antiproliferative activity IC50, BT-474
Procedure: as §1

[1] = system: HDACs (HeLa cell nuclear extracts); experiment: HDAC enzymatic activity, Biomol Color de Lys system; format: biochemical
Procedure, shortened: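 IC50 from sigmoidal dose-response fits of fluorescence (Ex 350–380, Em 440–460 nm). Compounds in DMSO dilution series incubated 1 h at 25 °C with HeLa nuclear extract HDACs and colorimetric substrate, pH 8.0 Tris/Cl buffer with NaCl, KCl, MgCl2, before developer termination.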

Sk-Mel-28 cells [2] = experiment: Cell proliferation assay Method A (ATPlite), Sk-Mel-28; format: cell-based; details: Homo sapiens, 72 hours, read-out: antiproliferative activity IC50, Sk-Mel-28
Procedure: as §1

H1993 cells [3] = experiment: Cell proliferation assay Method A (ATPlite), H1993; format: cell-based; details: Homo sapiens, NCI-H1993, 72 hours, read-out: antiproliferative activity IC50, H1993
Procedure: as §1

RPMI-8226 cells = experiment: Cell proliferation assay Method B, RPMI-8226; format: cell-based; details: Homo sapiens, Multiple Myeloma, 72 hours, 0.5% fetal bovine serum, CellTiter-Glo, read-out: antiproliferative activity IC50, RPMI-8226
Procedure: (§2) Cancer cell lines were plated at 5,000 to 10,000 per well in 96-well flat bottomed plates with various concentration of compounds. The cells were incubated with compounds for 72 hours in the presence of 0.5% of fetal bovine serum. Growth inhibition was accessed by adenosine triphosphate (ATP) content assay using Promega CellTiter-Glo kit. Promega CellTiter-Glo kit is an ATP monitoring system based on firefly luciferase. Briefly, 16 μl of mammalian cell lysis and substrate solution was added to 84 μl of culture medium per well to lyse the cells and stabilize the ATP. The mixture was shaken and incubated for 30 minutes and subsequently the luminescence was measured.

Sk-Mel-28 cells [4] = experiment: Cell proliferation assay Method B, Sk-Mel-28; format: cell-based; details: Homo sapiens, Melanoma, 72 hours, read-out: antiproliferative activity IC50, Sk-Mel-28
Procedure: as §2

H1993 cells [5] = experiment: Cell proliferation assay Method B, H1993; format: cell-based; details: Homo sapiens, NCI-H1993; NSCLC; H1993; 72 hours, 0.5% fetal bovine serum, CellTiter-Glo; read-out: antiproliferative activity IC50, H1993
Procedure: as §2

BT474 cells = experiment: Cell proliferation assay Method B, BT474; format: cell-based; details: Homo sapiens, BT-474, 72 hours, read-out: antiproliferative activity IC50, BT474
Procedure: as §2

A375 cells = experiment: Cell proliferation assay Method B, A375; format: cell-based; details: Homo sapiens, A-375; Melanoma; Method B; 72 hours; read-out: antiproliferative activity IC50, A375
Procedure: as §2

[6] = Sk-Mel-28, 0.5% fetal bovine serum, CellTiter-Glo

IC50 (HCT-118 cells)	IC50 (BT-474 cells)	IC50 [1]	melting point	IC50 (H1993 cells [3])	IC50 (RPMI-8226 cells)	IC50 (H1993 cells [5])	IC50 (BT474 cells; BT474, 0.5% fetal bovine serum, CellTiter-Glo)	IC50 (A375 cells)	IC50 (BT474 cells; Breast, Method B)	SMILES	IC50 (Sk-Mel-28 cells [2])	IC50 (Sk-Mel-28 cells [4]; [6])	IC50 (Sk-Mel-28 cells [4]; SK-MEL-28, Method B)
100 to 1000 nM	100 to 1000 nM	< 100 nM	218 to 220 °C	100 to 1000 nM						O=C(NO)c1ccc(NCc2cc3nc(-c4cccc5[nH]ncc45)nc(N4CCOCC4)c3s2)nc1 [Compound 76, 6-((2-(1H-indazol-4-yl)-4-morpholinothieno[3,2-d]pyrimidin-6-yl)methylamino)-N-hydroxynicotinamide]	100 to 1000 nM		
1000 to 10000 nM	1000 to 10000 nM	< 100 nM		> 10000 nM						O=C(NO)c1cnc(N(CCCO)Cc2cc3nc(-c4cccc5[nH]ncc45)nc(N4CCOCC4)c3s2)nc1 [Compound 91]			
< 100 nM	< 100 nM	< 100 nM	200 to 206 °C	< 100 nM						CN(C)c1ncc(-c2nc(N3CCOCC3)c3sc(CN(C)c4ncc(C(=O)NO)cn4)cc3n2)cn1 [Compound 117, 2-(((2-(2-(dimethylamino)pyrimidin-5-yl)-4-morpholinothieno[3,2-d]pyrimidin-6-yl)methyl)(methyl)amino)-N-hydroxypyrimidine-5-carboxamide]	< 100 nM		
100 to 1000 nM	100 to 1000 nM	< 100 nM	190 to 194 °C							O=C(NO)c1cnc(N(CCO)Cc2cc3nc(-c4cccc5[nH]ncc45)nc(N4CCOCC4)c3s2)nc1 [Compound 86, 2-(((2-(1H-indazol-4-yl)-4-morpholinothieno[3,2-d]pyrimidin-6-yl)methyl)(2-hydroxyethyl)amino)-N-hydroxypyrimidine-5-carboxamide]	1000 to 10000 nM		
< 100 nM	< 100 nM	< 100 nM	160 to 164 °C	< 100 nM						CN(Cc1cc2nc(-c3cccnc3)nc(N3CCOCC3)c2s1)c1ncc(C(=O)NO)cn1 [Compound 109, N-hydroxy-2-(methyl((4-morpholino-2-(pyridin-3-yl)thieno[3,2-d]pyrimidin-6-yl)methyl)amino)pyrimidine-5-carboxamide]			
		< 100 nM	179 to 183 °C		< 10 nM					CN(Cc1cc2nc(-c3ccc(N)cc3Cl)nc(N3CCOCC3)c2s1)c1ncc(C(=O)NO)cn1 [Compound 284, 2-(((2-(4-Amino-2-chlorophenyl)-4-morpholinothieno[3,2-d]pyrimidin-6-yl)methyl)(methyl)amino)-N-hydroxypyrimidine-5-carboxamide]			
< 100 nM	100 to 1000 nM			1000 to 10000 nM						COCCN(Cc1cc2nc(-c3cccc4[nH]ncc34)nc(N3CCOCC3)c2s1)c1ncc(C(=O)NO)cn1 [Compound 90, 2-(((2-(1H-indazol-4-yl)-4-morpholinothieno[3,2-d]pyrimidin-6-yl)methyl)(2-methoxyethyl)amino)-N-hydroxypyrimidine-5-carboxamide]			
< 100 nM	< 100 nM	< 100 nM								CCN(Cc1cc2nc(-c3cccc4[nH]ncc34)nc(N3CCOCC3)c2s1)c1ncc(C(=O)NO)cn1 [Compound 92]	100 to 1000 nM		
< 100 nM	< 100 nM	< 100 nM	215 to 217 °C	< 100 nM						CN(Cc1cc2nc(-c3cc(F)cc4[nH]ncc34)nc(N3CCOCC3)c2s1)c1ncc(C(=O)NO)cn1 [Compound 69, 2-(((2-(6-fluoro-1H-indazol-4-yl)-4-morpholinothieno[3,2-d]pyrimidin-6-yl)methyl)(methyl)amino)-N-hydroxypyrimidine-5-carboxamide]	< 100 nM		
> 10000 nM	100 to 1000 nM	< 100 nM		> 10000 nM						N#CCCN(Cc1cc2nc(-c3cccc4[nH]ncc34)nc(N3CCOCC3)c2s1)c1ncc(C(=O)NO)cn1 [Compound 99]	100 to 1000 nM		
< 100 nM	< 100 nM	< 100 nM	195 to 198 °C	100 to 1000 nM		100 to 1000 nM	10 to 100 nM			Cc1nc(N)ncc1-c1nc(N2CCOCC2)c2sc(CN(C)c3ncc(C(=O)NO)cn3)cc2n1 [Compound 125, 2-(((2-(2-amino-4-methylpyrimidin-5-yl)-4-morpholinothieno[3,2-d]pyrimidin-6-yl)methyl)(methyl)amino)-N-hydroxypyrimidine-5-carboxamide]	100 to 1000 nM	100 to 1000 nM	
		< 100 nM			< 10 nM					CC(O)c1cccc(-c2nc(N3CCOCC3)c3sc(CN(C)c4ncc(C(=O)NO)cn4)cc3n2)c1 (centres unmarked) [Compound 294, N-Hydroxy-2-(((2-(3-(1-hydroxyethyl)phenyl)-4-morpholinothieno[3,2-d]pyrimidin-6-yl)methyl)(methyl)amino)pyrimidine-5-carboxamide]		< 10 nM	
		< 100 nM	250 to 255 °C					< 10 nM		CN(Cc1cc2nc(-c3cc(O)ccc3F)nc(N3CCOCC3)c2s1)c1ncc(C(=O)NO)cn1 [Compound 292, 2-(((2-(2-Fluoro-5-hydroxyphenyl)-4-morpholinothieno[3,2-d]pyrimidin-6-yl)methyl)(methyl)amino)-N-hydroxypyrimidine-5-carboxamide]			
		< 100 nM	148 to 152 °C		< 10 nM					CN(Cc1cc2nc(-c3cccc(OCCO)c3)nc(N3CCOCC3)c2s1)c1ncc(C(=O)NO)cn1 [Compound 289, 2-({2-[3-(2-Hydroxy-ethoxy)-phenyl]-4-morpholin-4-yl-thieno[3,2-d]pyrimidin-6-ylmethyl}-methyl-amino)-pyrimidine-5-carboxylic acid hydroxyamide]		< 10 nM	
< 100 nM	< 100 nM	< 100 nM		< 100 nM					< 10 nM	CC(c1cc2nc(-c3cccc4[nH]ncc34)nc(N3CCOCC3)c2s1)N(C)c1ncc(C(=O)NO)cn1 (centres unmarked) [Compound 70]	< 100 nM		100 to 1000 nM
100 to 1000 nM	100 to 1000 nM	100 to 1000 nM		100 to 1000 nM						CN(Cc1cc2nc(-c3cccc4[nH]ncc34)nc(N3CCOCC3)c2s1)c1ncc(/C=C/C(=O)NO)cn1 [Compound 75]	100 to 1000 nM		
		< 100 nM	215 to 218 °C		100 to 1000 nM					CNc1ccc(-c2nc(N3CCOCC3)c3sc(C(=O)NCC4CCN(c5ncc(C(=O)NO)cn5)CC4)cc3n2)cn1 [Compound 308, N-((1-(5-(Hydroxycarbamoyl)pyrimidin-2-yl)piperidin-4-yl)methyl)-2-(6-(methylamino)pyridin-3-yl)-4-morpholinothieno[3,2-d]pyrimidine-6-carboxamide]			
100 to 1000 nM	< 100 nM	< 100 nM	234 to 237 °C	100 to 1000 nM						O=C(NO)c1cnc(NCc2cc3nc(-c4cccc5[nH]ncc45)nc(N4CCOCC4)c3s2)nc1 [Compound 53, 2-((2-(1H-indazol-4-yl)-4-morpholinothieno[3,2-d]pyrimidin-6-yl)methylamino)-N-hydroxypyrimidine-5-carboxamide]	100 to 1000 nM		
		< 100 nM	168 to 172 °C		< 10 nM					C[C@H](O)c1cccc(-c2nc(N3CCOCC3)c3sc(CN(C)c4ncc(C(=O)NO)cn4)cc3n2)c1 [Compound 296, (S)—N-Hydroxy-2-(((2-(3-(1-hydroxyethyl)phenyl)-4-morpholinothieno[3,2-d]pyrimidin-6-yl)methyl)(methyl)amino)pyrimidine-5-carboxamide]			
100 to 1000 nM	1000 to 10000 nM	< 100 nM		1000 to 10000 nM						CC(=O)OCCN(Cc1cc2nc(-c3cccc4[nH]ncc34)nc(N3CCOCC3)c2s1)c1ncc(C(=O)NO)cn1 [Compound 87]	100 to 1000 nM		
